Assay results: EP4711370A1, “DEUTERATED CAMPTOTHECIN COMPOUND, AND PREPARATION THEREFOR AND USE THEREOF” (Shanghai Qilu Pharmaceutical Research and Development …, priority 2023, dated 2024)

Experiments:
Pharmacokinetics in rats = format: in vivo, SD rats; conditions: 3 mg/kg, Rat PK (IV, 3 mpk), single injection, plasma, Formulation A
Experimental: Objective: To evaluate the pharmacokinetic characteristics of the compounds of the present disclosure in rats.
SD rats (purchased from Beijing Vital River Laboratory Animal Technology Co., Ltd.) were used, with 6 rats per group (half male and half female), randomly grouped. A single injection of the sample (Formulation A: 5% DMSO + 95% (15% sulfobutyl-β-cyclodextrin-normal saline), diluted according to the dose) was administered. Blood samples were collected at crossover time points: before administration and at 5 min, 30 min, 1 h, 2 h, 4 h, 6 h, 8 h, 10 h, and 24 h after administration. Plasma was collected, and the sample concentration in plasma was detected by LC-MS. Table 3-1. PK parameters of the compounds of the present disclosure in rats

[1] = Repeated administration toxicity experiment in rats; format: in vivo, SD rats; conditions: for Clinical observation: course after ataxia / Clinical observation: animals showed ataxia immediately after administration / Clinical observation: died during recovery (among animals with ataxia) / Body weight / food intake: tail vein injection for 7 consecutive days; for Clinical observation: animals showed ataxia immediately after administration / Clinical observation: died during recovery (among animals with ataxia): main trial group + TK group; for gross dissection: lungs: gross dissection on D8 after administration; for Body weight / food intake: 0.3 mg/kg and 1.0 mg/kg, Compound 2 stated relative to Dxd at the same dose
Experimental: Test sample preparation: The test sample was weighed according to the predetermined weight into a glass vial. First, 1 mL of DMSO was added and mixed until the test sample was dissolved, followed by the addition of 1 mL of Solutol HS-15.
SD rats (purchased from Beijing Vital River) were used as test animals. […] During the acclimation period, one cage-side observation was conducted daily; during the administration period, all animals were subjected to clinical observations twice daily (morning and afternoon). Reactions in various aspects, including the skin, fur, eyes (sclera), ears, nose, oral cavity, chest, abdomen, urogenital area, limbs, as well as respiration, movement, urination, defecation (including urine and feces color), and behavioral changes, were recorded. Daily weight data of the main test group animals were documented. For animals scheduled for dissection, terminal body weight (fasted) was measured before dissection. The food intake of the test animals was also recorded.
At the end of the administration, gross dissection was performed on D8 after administration.

Pharmacokinetics in mice = format: in vivo, Balb/c mice; conditions: 3 mg/kg, Mouse PK (IV, 3 mpk), single injection, plasma
Text: Objective: To evaluate the pharmacokinetic characteristics of the compounds of the present disclosure in mice.
Balb/c mice were taken, with 12 mice per group (half male and half female), randomly grouped, and administered a single injection of the sample (Formulation A: 5% DMSO + 95% (15% sulfobutyl-β-cyclodextrin-normal saline), Formulation B: 5% DMSO-10% Solutol HS 15-85% normal saline, diluted according to the dose). Blood samples were collected at crossover time points, including before administration and at 5 min, 30 min, 1 h, 2 h, 4 h, 6 h, 8 h, 10 h, and 24 h after administration. Plasma was collected, and the sample concentration in plasma was detected by LC-MS. Table 2-1. PK parameters of the compounds of the present disclosure in mice

[2] = tested on: MDA-MB-468 (human breast cancer cells); test: In vitro antitumor activity (cell proliferation inhibition, CellTiter-Glo); format: cell-based; conditions: MDA-MB-468 cells, 48 hours of incubation
Text: (§1) Objective: To detect the in vitro inhibitory activity of the compounds of the present disclosure against NCI-N87 (human gastric cancer cells), Calu-3 (human lung adenocarcinoma cells), MDA-MB-453 (human breast cancer cells), KPL-4 (human breast cancer cells), or MDA-MB-468 (human breast cancer cells).
(§2) Tumor cells in the logarithmic growth phase, including NCI-N87 (source: ATCC, catalog number: CRL-5822), Calu-3 (source: ATCC, catalog number: HTB-55), MDA-MB-453 (source: ATCC, catalog number: HTB-131), KPL-4 (source: Nanjing Cobioer Biosciences, catalog number: CBP60379), or MDA-MB-468 (source: ATCC, catalog number: HTB-132), were seeded into cell plates at a density of 5,000 cells/well. The cell plates were then incubated in a 37°C, 5% CO2 cell culture incubator for 12-16 hours. 100 µL of sample (starting at 10 µM, 4-fold dilution, 10 concentrations) was added to each well. After gentle shaking, the plates were placed in the incubator for further incubation. After 48 hours of incubation, 70 µL of CellTiter-Glo™ (Promega, catalog number: G7572) working solution was added, gently shaken to lyse the cells, and the plates were read on a microplate reader. The cell proliferation inhibition rate was calculated using the following formula: cell proliferation inhibition rate = (1-sample well/control well)×100%. GraphPad Prism 8.0 software was used to plot the Log value of sample concentration as the x-axis and Cytotoxicity% as the y-axis. The data were analyzed by Nonlinear regression (curve fit) to obtain the IC50 values for each sample, with specific results shown in Tables 1-1 and 1-2. Table 1-1. In vitro activity test results of the compounds of the present disclosure

[3] = tested on: NCI-N87 (human gastric cancer cells); test: as above; format: cell-based; conditions: 48 hours of incubation
Text: as §1, §2

[4] = tested on: Calu-3 (human lung adenocarcinoma cells); test: as above; format: cell-based; conditions: Calu-3 cells, 48 hours of incubation
Text: as §1, §2

[5] = tested on: MDA-MB-453 (human breast cancer cells); test: as above; format: cell-based; conditions: MDA-MB-453 cells, 48 hours of incubation
Text: as §1, §2

[6] = tested on: KPL-4 (human breast cancer cells); test: as above; format: cell-based; conditions: KPL4, KPL-4 cells, 48 hours of incubation
Text: as §1, §2

[7] = In vitro plasma stability; format: in vitro ADME; conditions: 37°C, 5 µM
Experimental: 398 µL of plasma was taken and preheated to 37°C, then co-incubated for 15 minutes. 2 µL of the sample solution was added to the plasma to prepare a final sample concentration of 5 µM. The above solution was co-incubated at 37°C, and 50 µL aliquots were taken at 0, 15, 30, 60, and 120 minutes, followed by the addition of 450 µL of ice-cold acetonitrile (containing the internal standard). The solution was vortexed for 10 minutes, centrifuged, and the remaining content of the parent substrate was detected by the LC-MS/MS method. For specific results, refer to Table 4-1. Table 4-1. Plasma stability of the compounds of the present disclosure

[8] = both sexes, Balb/c, Formulation A (5% DMSO + 95% (15% sulfobutyl-β-cyclodextrin-normal saline))
[9] = in vivo, Formulation A (5% DMSO + 95% (15% sulfobutyl-β-cyclodextrin-normal saline))
[10] = in vivo, Formulation B (5% DMSO-10% Solutol HS 15-85% normal saline)

| SMILES | IC50 [2] | IC50 [3] | IC50 [4] | IC50 [5] | Residual content of parent toxin at 120 minutes (relative to 0 minutes) ([7]; CD1 mouse plasma) | Residual content of parent toxin at 120 minutes (relative to 0 minutes) ([7]; Human plasma) | Cmax (Pharmacokinetics in mice; [10]) | half-life (Pharmacokinetics in mice; [10]) | further results |
| --- | --- | --- | --- | --- | --- | --- | --- | --- | --- |
| CC[C@@]1(O)C(=O)OCc2c1cc1n(c2=O)Cc2c-1nc1cc(F)c(C)c3c1c2[C@@H](NC(=O)CO)CC3 [Dxd] | – | – | – | – | – | – | – | – | AUC(0-inf) (Pharmacokinetics in rats; both sexes, SD): 352 ng·h/mL; Cmax (Pharmacokinetics in rats; both sexes, SD): 621 ng/mL; clearance (Pharmacokinetics in rats; both sexes, SD): 144 mL/min/kg; half-life (Pharmacokinetics in rats; both sexes, SD): 70.3 min; Clinical observation: course after ataxia ([1]; 0.3 mpk dose group): the other rats gradually recovered; Clinical observation: animals showed ataxia immediately after administration ([1]; 0.3 mpk dose group): 31%; Clinical observation: died during recovery (among animals with ataxia) ([1]; 0.3 mpk dose group): 40%; Clinical observation: course after ataxia ([1]; 1 mpk dose group): the other rats gradually recovered; Clinical observation: animals showed ataxia immediately after administration ([1]; 1 mpk dose group): 31%; Clinical observation: died during recovery (among animals with ataxia) ([1]; 1 mpk dose group): 40%; gross dissection: lungs [1]: Focal/punctate dark red discoloration was observed in the lungs of some deceased rats; Body weight [1]: Slow weight gain/weight loss;; food intake [1]: Decreased food intake; Cmax (Pharmacokinetics in mice; [8]): 521 ng/mL; half-life (Pharmacokinetics in mice; [8]): 70.2 min |
| [2H]C1([2H])OC(=O)[C@](O)(CC)c2cc3n(c(=O)c21)Cc1c-3nc2cc(F)c(C)c3c2c1[C@@H](NC(=O)CO)CC3 [Compound 2] | 0.98 nM | 7.17 nM | 27.1 nM | 114 nM | – | – | – | – | AUC(0-inf) (Pharmacokinetics in rats; in vivo): 218 ng·h/mL; Cmax (Pharmacokinetics in rats; in vivo): 406 ng/mL; clearance (Pharmacokinetics in rats; in vivo): 235 mL/min/kg; half-life (Pharmacokinetics in rats; in vivo): 39.7 min; Clinical observation: course after ataxia ([1]; 0.3 mpk dose group): then gradually recovered; Clinical observation: animals showed ataxia immediately after administration ([1]; 0.3 mpk dose group): 13%; Clinical observation: course after ataxia ([1]; 1 mpk dose group): then gradually recovered; Clinical observation: animals showed ataxia immediately after administration ([1]; 1 mpk dose group): 25%; average food intake, ♀ rats ([1]; female rats, compared with the control (Dxd) group at the same dose): For ♀ rats, the average food intake in the Compound 2 group was higher than that in the control group at the same dose;; gross dissection: lungs [1]: no such pathological changes were found in any dose group; Body weight [1]: At the same dose, the effects of Compound 2 and Dxd on rat body weight and food intake were generally comparable;; food intake [1]: At the same dose, the effects of Compound 2 and Dxd on rat body weight and food intake were generally comparable;; Cmax (Pharmacokinetics in mice; [9]): 449 ng/mL; half-life (Pharmacokinetics in mice; [9]): 27.3 min |
| [2H]C1([2H])OC(=O)[C@](O)(CC)c2cc3n(c(=O)c21)Cc1c-3nc2cc3c(cc2c1CCCO)OCO3 [Compound 12] | 1.7 nM | 7.29 nM | – | – | – | – | – | – | IC50 [6]: 7.05 nM |
| [2H]C1([2H])OC(=O)[C@](O)(CC)c2cc3n(c(=O)c21)Cc1c-3nc2cc(F)c(C)c3c2c1[C@@H](NC(=O)C[C@@H](C)O)CC3 [Compound 5] | 1.3 nM | 9.18 nM | 32.9 nM | 94.6 nM | 96.02% | 107.73% | 3520 ng/mL | 40.4 min | – |
| [2H]C1([2H])OC(=O)[C@](O)(CC)c2cc3n(c(=O)c21)Cc1c-3nc2cc(F)c(C)c3c2c1[C@@H](NC(=O)[C@@H](O)C1CC1)CC3 [Compound 4] | 0.88 nM | 4.06 nM | 19.3 nM | 55.3 nM | – | – | – | – | – |
| [2H]C1([2H])OC(=O)[C@](O)(CC)c2cc3n(c(=O)c21)Cc1c-3nc2cc(F)c(C)c3c2c1[C@@H](NC(=O)C[C@H](C)O)CC3 [Compound 6] | 3.11 nM | 13.3 nM | 46.6 nM | 121 nM | 105.93% | 94.89% | 2580 ng/mL | 40.7 min | – |
| [2H]C1([2H])OC(=O)[C@](O)(CC)c2cc3n(c(=O)c21)Cc1c-3nc2cc(F)c(C)c3c2c1[C@@H](NC(=O)[C@H](O)C1CC1)CC3 [Compound 3] | 0.97 nM | 4.37 nM | 17.1 nM | 40.3 nM | 104.97% | 105.54% | 4300 ng/mL | 36.4 min | – |
